According to article PMC12389534, “Unlocking Therapeutic Potential of Novel Thieno-Oxazepine Hybrids as Multi-Target Inhibitors of AChE/BChE and Evaluation Against Alzheimer’s Disease: In Vivo, In Vitro, Histopathological, and Docking Studies” (Pharmaceuticals, 2025):
“Also recorded” adds a separate entry of the source.

Legend:
[1] = test system: AlCl3-induced AD rat model; experiment: Morris water maze (MWM) test in AlCl3-induced AD rats; assay type: in vivo; conditions: for Learning (s): escape latency; for Learning (s) / Memory (s): mean ± SE, n = 6; for Memory (s): time spent in target quadrant
How it was run: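 Male Sprague Dawley rats, 300–320 g, trained in a 150 cm pool with opaque water (25 ± 2 °C) and a 10 cm platform 2 cm submerged. Four trials daily for three days, 60 s limit, 20 s on platform; escape latency recorded. Day-4 probe without platform, 60 s, time in target quadrant counted.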

[2] = test system: AlCl3-induced AD rat model; experiment: Y-maze SAP test in AlCl3-induced AD rats; assay type: in vivo; conditions: for SAP%: mean ± SE, n = 6
How it was run: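 Spontaneous alternation performance measured in male Dawley rats (300–320 g) with AlCl3-induced AD, each allowed 8 min free exploration of a three-arm Y-maze. Arm entries counted with hind paws fully inside; SAP (%) = alternations/(total entries − 2) × 100.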

BACE1 = experiment: Brain BACE1 level (ELISA); assay type: in vivo, rat; design: reduction of BACE1 levels: concentration or dose not given beside the values; conditions: AlCl3-induced AD rats; for BACE1 (ng/mL): mean ± SE, n = 6
Procedure: (§1) The brain tissues of the rats were removed and rigorously washed in isotonic saline 24 h after they were euthanized following the last behavioral test. For histological investigation, four brains per group were preserved for the whole night in 10% neutral buffered formalin. The remaining six brains were split into two sections each. In order to create a 10% homogenate (w/v), the first component was instantaneously homogenized using an ice-cold solution that included 300 mM sucrose and 50 mM Tris-HCl (pH 7.4). The homogenate was centrifuged at 1800× g for 10 min at 4 °C for biochemical tests, and the supernatant was thereafter kept at −20 °C. The second portion was set aside for use in RT-PCR analysis at −80 °C [94]. […]

Amyloid-β = experiment: Brain amyloid-β level (ELISA); assay type: in vivo, rat; design: reduction of β-amyloid levels: concentration or dose not given beside the values; conditions: AlCl3-induced AD rats; for Amyloid-β (ng/g Tissue): brain, mean ± SE, n = 6
Procedure: (§2) The brain tissues of the rats were removed and rigorously washed in isotonic saline 24 h after they were euthanized following the last behavioral test. For histological investigation, four brains per group were preserved for the whole night in 10% neutral buffered formalin. The remaining six brains were split into two sections each. In order to create a 10% homogenate (w/v), the first component was instantaneously homogenized using an ice-cold solution that included 300 mM sucrose and 50 mM Tris-HCl (pH 7.4). The homogenate was centrifuged at 1800× g for 10 min at 4 °C for biochemical tests, and the supernatant was thereafter kept at −20 °C. The second portion was set aside for use in RT-PCR analysis at −80 °C [94].
(§3) See Supplementary Information.

5-HT = experiment: Brain 5-HT level (fluorometric); assay type: in vivo, rat; conditions: AlCl3-induced AD rats; for 5-HT (ng/g Tissue): brain tissue, mean ± SE, n = 6
Procedure: as §2
Brain monoamine levels were promptly assessed following the rats’ euthanasia to prevent changes in the substance’s concentration. Dopamine (DA), norepinephrine (NE), and serotonin (5-HT) fluorometric tests were conducted on brain tissue homogenate using the Ciarlone method. […] The concentrations were articulated as nanograms per gram of fresh tissue using the fluorescence of reference solutions [95].

BDNF = experiment: Brain BDNF level (ELISA); assay type: in vivo, rat; conditions: AlCl3-induced AD rats; for BDNF (ng/mL): brain tissue, mean ± SE, n = 6
Procedure: as §2, §3

IL-1β = experiment: Brain IL-1β level (ELISA); assay type: in vivo, rat; design: reduction in IL-1β levels: concentration or dose not given beside the values; conditions: AlCl3-induced AD rats; for IL-β (pg/g Tissue): mean ± SE, n = 6
Procedure: as §1

TLR4 = TLR4 mRNA expression (RT-qPCR); assay type: in vivo, rat; design: reduction of TLR4 mRNA expression: concentration or dose not given beside the values; conditions: AlCl3-induced AD rats; for TLR4: mRNA expression level, mean ± SE, n = 6
Procedure: as §2, §3

NFκβ = NFκβ mRNA expression (RT-qPCR); assay type: in vivo, rat; design: reduction of NFκβ mRNA expression: concentration or dose not given beside the values; conditions: AlCl3-induced AD rats; for NFκβ: mRNA expression level, mean ± SE, n = 6
Procedure: as §2, §3

NLRP3 = NLRP3 mRNA expression (RT-qPCR); assay type: in vivo, rat; design: reduction of NLRP3 mRNA expression: concentration or dose not given beside the values; conditions: AlCl3-induced AD rats; for NLRP3: mRNA expression level, mean ± SE, n = 6
Procedure: as §2, §3

Caspase-1 = Caspase-1 gene expression (RT-qPCR); assay type: in vivo, rat; design: reduction of Caspase-1 levels: concentration or dose not given beside the values; conditions: AlCl3-induced AD rats; for Caspase-1: gene expression, mean ± SE, n = 6
Procedure: as §2, §3

[3] = test system: brain tissue (CC, ST, FD, SN neurons); experiment: Histopathological examination of brain tissue; assay type: in vivo, rat; conditions: brain sections, AlCl3-induced AD rats; for histopathological finding in CC, ST, FD and SN (NP = nuclear pyknosis): H&E
Procedure: as §2
Brain tissue samples were stationed in 10% formalin for 24 h, washed with water, and then serially diluted with alcohol to induce dehydration. After being submerged in paraffin, the specimens were cut into segments that were 4 µm thick using a microtome.

BChE = biological target: T1, BChE (Homo sapiens, UniProt P06276); experiment: biochemical; conditions: for IC50: fluorescence kit, triplicate; for Selectivity Index BChE/AChE: ratio of IC50 BChE to IC50 AChE, <1 = preferential BChE inhibition
T1 construct: purchased Invitrogen EIABCHEF
Procedure: Using an Invitrogen BChE test kit (Catalog #EIABCHEF), the assay was performed in compliance with the supplier’s instructions. The study was conducted using black 96-well plates. […] Each well was then filled with 50 μL of the reaction mixture, which consisted of fluorescence detection reagent and butyrylthiocholine iodide in assay buffer. The plate was then left to incubate for 20 min at room temperature. Finally, excitation at 390 nm was used to observe emission at 510 nm using a microplate reader. Background fluorescence was further eliminated for each data point.

T1 sequence (P06276 29-602): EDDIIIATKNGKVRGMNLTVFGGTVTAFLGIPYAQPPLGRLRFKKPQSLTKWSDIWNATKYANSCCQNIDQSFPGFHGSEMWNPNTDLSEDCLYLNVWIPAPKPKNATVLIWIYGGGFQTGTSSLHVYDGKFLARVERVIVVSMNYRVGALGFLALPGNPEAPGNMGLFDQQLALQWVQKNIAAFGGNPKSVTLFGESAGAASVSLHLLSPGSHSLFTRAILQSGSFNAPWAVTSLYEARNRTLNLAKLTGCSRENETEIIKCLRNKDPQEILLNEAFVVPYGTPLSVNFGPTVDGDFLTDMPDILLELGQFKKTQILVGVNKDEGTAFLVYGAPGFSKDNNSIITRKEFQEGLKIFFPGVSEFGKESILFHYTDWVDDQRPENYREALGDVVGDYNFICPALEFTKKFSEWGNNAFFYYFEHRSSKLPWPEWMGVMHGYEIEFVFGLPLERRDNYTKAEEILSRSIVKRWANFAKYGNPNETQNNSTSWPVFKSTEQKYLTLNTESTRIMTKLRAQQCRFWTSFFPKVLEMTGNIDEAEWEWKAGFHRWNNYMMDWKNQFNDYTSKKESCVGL

Structure (SMILES)	increase in quadrant residence time [1]	Learning (s) [1]	Memory (s) [1]	SAP% [2]	BACE1 (ng/mL) (BACE1)	reduction of β-amyloid levels (Amyloid-β)	Amyloid-β (ng/g Tissue) (Amyloid-β)	elevation of 5-HT levels (5-HT)	5-HT (ng/g Tissue) (5-HT)	elevation of BDNF levels (BDNF)	BDNF (ng/mL) (BDNF)	reduction in IL-1β levels (IL-1β)	IL-β (pg/g Tissue) (IL-1β)	reduction of TLR4 mRNA expression (TLR4)	TLR4 (TLR4)	reduction of NFκβ mRNA expression (NFκβ)	NFκβ (NFκβ)	reduction of NLRP3 mRNA expression (NLRP3)	NLRP3 (NLRP3)	reduction of Caspase-1 levels (Caspase-1)	further results
O=C1CN(c2ccc(O)cc2)C(=O)c2c(sc3c2CCCCC3)O1 [Compound 15, 4-(4-Hydroxyphenyl)-3,4,7,8,9,10-hexahydro-6H-cyclohepta[4,5]thieno[3,2-f][1,4]oxa-zepine-2,5-dione]	~4.3 times	19.17 ± 1.01 ^abc s	42.50 ± 1.06 ^abc s	82.5 ± 0.89 ^abc %	10.50 ± 0.2 ^abc ng/mL	73.2%	7.46 ± 0.9 ^abc ng/g Tissue	3.7 fold	6.77 ± 0.22 ^abc ng/g Tissue	2.2 fold	94.48 ± 0.05 ^abc ng/mL	61.1%	45.66 ± 1.03 ^abc pg/g Tissue	52.5%	4.57 ± 0.09 ^abc	64.8%	2.98 ± 0.10 ^abc	68.5%	3.36 ± 0.12 ^abc	69.1%	reduction in escape latency [1]: 61%; increase in SAP% [2]: ~34.8%; reduction of BACE1 levels (BACE1): 64.6%; Caspase-1 (Caspase-1): 2.94 ± 0.110 ^abc; histopathological finding in CC, ST, FD and SN (NP = nuclear pyknosis) [3]: normal histology of CC and FD, and moderate NP in ST and SN; histology of CC neurons and FD [3]: normal histological structures; pyknosis in ST and SN neurons [3]: moderate pyknosis; IC50 (BChE): 0.7 ± 0.02 µM; Selectivity Index BChE/AChE (BChE): 0.44
COc1ccc(N2CC(=O)Oc3sc4c(c3C2=O)CCCCC4)cc1 [Compound 16, 4-(4-Methoxyphenyl)-3,4,7,8,9,10-hexahydro-6H-cyclohepta[4,5]thieno[3,2-f][1,4]oxa-zepine-2,5-dione]	3.6 times	26.83 ± 1.2 ^abc s	36.00 ± 1.27 ^abc s	71.67 ± 1.15 ^abc %	17.44 ± 0.23 ^abc ng/mL	55.4%	12.44 ± 0.14 ^abc ng/g Tissue	5.9 fold	10.65 ± 0.71 ^abc ng/g Tissue	3.1 fold	134.8 ± 0.01 ^abc ng/mL	55.2%	53.04 ± 0.61 ^abc pg/g Tissue	53.9%	4.43 ± 0.08 ^abc	44.5%	4.70 ± 0.12 ^abc	59.5%	4.32 ± 0.10 ^abc	47%	Caspase-1 (Caspase-1): 5.04 ± 0.130 ^abc; histopathological finding in CC, ST, FD and SN (NP = nuclear pyknosis) [3]: mild NP in neurons in CC, as well as moderate NP in neurons of ST, FD, and SN; also recorded: minor NP in the CC and significant NP in FD, ST, and SN; IC50 (BChE): 5.23 ± 0.18 µM; Selectivity Index BChE/AChE (BChE): 6.89
